Assay: molar heat capacity at constant pressure
Conditions: 101.33 kPa, Liquid, Small sample (50 mg) DSC

CCCOC(=O)CCC(C)=O [propyl levulinate]
Conditions | molar heat capacity at constant pressure [J/K/mol]
336.54 K | 328.25
337.04 K | 328.57
337.54 K | 328.57
338.04 K | 329.2
338.54 K | 328.89
339.04 K | 329.05
339.54 K | 329.2
340.04 K | 328.89
340.54 K | 329.36
341.04 K | 329.84
341.54 K | 329.99
342.04 K | 329.68
342.54 K | 329.36
343.04 K | 330.31
343.54 K | 330.31
344.04 K | 330.15
344.54 K | 330.15
345.04 K | 330.63
345.54 K | 331.1
346.04 K | 331.1
346.54 K | 330.94
347.04 K | 331.58
347.54 K | 331.58
348.04 K | 331.73
348.54 K | 332.05
349.04 K | 331.89
349.54 K | 332.05
350.04 K | 332.37
350.54 K | 332.68
351.04 K | 333.16
351.54 K | 333
352.04 K | 333
352.54 K | 333.16
353.04 K | 333.95
353.54 K | 333.47
354.04 K | 334.27
354.54 K | 334.27
355.04 K | 334.42
355.54 K | 334.74
356.04 K | 334.27
356.54 K | 334.42
357.04 K | 334.58
357.54 K | 334.58
358.04 K | 335.22
358.54 K | 335.37
359.04 K | 335.85
359.54 K | 335.85
360.04 K | 335.53
360.54 K | 336.01
361.04 K | 336.32
361.54 K | 336.64
362.04 K | 336.16
362.54 K | 336.01
363.04 K | 336.16
363.54 K | 336.64
364.04 K | 337.11
364.54 K | 337.11
365.04 K | 337.11
365.54 K | 337.11
366.04 K | 337.9
366.54 K | 337.9
367.04 K | 337.59
367.54 K | 337.59
368.04 K | 338.06
368.54 K | 338.06
369.04 K | 337.75
369.54 K | 337.9
370.04 K | 338.22
370.54 K | 338.06
371.04 K | 338.54
371.54 K | 338.54
372.04 K | 338.7
372.54 K | 339.49
373.04 K | 339.33
373.54 K | 339.49
374.04 K | 340.12
374.54 K | 340.75
